The values below come from ChEMBL document CHEMBL6096636 (Bioorg Med Chem, 2024).

Data set [1] concerns the target T1, Protein deacetylase HDAC6 (Homo sapiens, UniProt Q9UBN7).
T1 sequence (Q9UBN7 whole entry): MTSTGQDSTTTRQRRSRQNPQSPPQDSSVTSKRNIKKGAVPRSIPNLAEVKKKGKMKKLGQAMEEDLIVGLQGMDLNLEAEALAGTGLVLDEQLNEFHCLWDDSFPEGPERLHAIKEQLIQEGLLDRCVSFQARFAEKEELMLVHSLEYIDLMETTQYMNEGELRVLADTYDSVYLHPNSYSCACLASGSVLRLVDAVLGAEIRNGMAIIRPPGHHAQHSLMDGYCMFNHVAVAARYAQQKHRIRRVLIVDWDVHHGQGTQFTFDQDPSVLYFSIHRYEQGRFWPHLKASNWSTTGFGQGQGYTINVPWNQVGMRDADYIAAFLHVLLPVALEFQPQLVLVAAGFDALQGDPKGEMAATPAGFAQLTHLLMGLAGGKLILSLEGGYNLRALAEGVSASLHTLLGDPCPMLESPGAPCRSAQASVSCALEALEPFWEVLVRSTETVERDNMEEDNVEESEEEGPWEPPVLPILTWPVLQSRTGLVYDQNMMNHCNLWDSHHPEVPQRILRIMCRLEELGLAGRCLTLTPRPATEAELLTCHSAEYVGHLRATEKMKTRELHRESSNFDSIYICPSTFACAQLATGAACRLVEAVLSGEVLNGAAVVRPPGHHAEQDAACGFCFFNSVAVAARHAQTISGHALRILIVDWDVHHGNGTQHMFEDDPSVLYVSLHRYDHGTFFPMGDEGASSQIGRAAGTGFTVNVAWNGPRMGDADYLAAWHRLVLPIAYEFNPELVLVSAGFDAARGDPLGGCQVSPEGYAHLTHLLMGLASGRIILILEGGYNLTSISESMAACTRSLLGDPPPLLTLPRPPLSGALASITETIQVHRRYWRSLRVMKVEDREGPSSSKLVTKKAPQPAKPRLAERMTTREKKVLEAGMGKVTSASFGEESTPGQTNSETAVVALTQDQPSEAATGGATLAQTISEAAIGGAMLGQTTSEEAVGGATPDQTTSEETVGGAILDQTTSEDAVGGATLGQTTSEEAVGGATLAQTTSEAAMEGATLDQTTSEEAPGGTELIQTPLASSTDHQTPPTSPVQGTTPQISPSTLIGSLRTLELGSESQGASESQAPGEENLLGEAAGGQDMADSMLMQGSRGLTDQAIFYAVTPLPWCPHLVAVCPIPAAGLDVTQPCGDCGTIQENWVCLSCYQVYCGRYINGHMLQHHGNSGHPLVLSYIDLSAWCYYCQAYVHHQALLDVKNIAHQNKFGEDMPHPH
Nature of the data set: Inhibition of recombinant human HDAC6 using Ac-peptide as substrate preincubated for 15 mins followed by substrate addition and measured after 60 mins.

For data set [2], the system named is Plasmodium falciparum. Nature of the data set: microbe, parasite or virus in culture. Conditions: 3D7, 72 h.
Description: Antimalarial activity against erythrocytic stage of Plasmodium falciparum 3D7 assessed as inhibition of growth incubated for 72 hrs by SYBR green I based assay
Data set [3] relates to Plasmodium falciparum. Put plainly: microbe, parasite or virus in culture. As to conditions: Dd2, 72 h.
Description: Antimalarial activity against erythrocytic stage of chloroquine-resistant Plasmodium falciparum Dd2 assessed as inhibition of growth incubated for 72 hrs by SYBR green I based assay
Data set [4] in a line: Toxicity in female mouse model infected with erythrocytic stage of Plasmodium yoelli assessed as animal death at 30 mg/kg, ip pre-infected with parasite followed by twice daily compound administration from day 3 to 6. The format is organism-based. Conditions: in vivo, 96 h, time 4 day.
The target of the next data set is Histone deacetylase 2 (Homo sapiens, UniProt Q92769). Nature of the data set: Inhibition of recombinant human HDAC2 using Ac-peptide as substrate preincubated for 15 mins followed by substrate addition and measured after 60 mins.
Sequence of Histone deacetylase 2 (Q92769 whole entry): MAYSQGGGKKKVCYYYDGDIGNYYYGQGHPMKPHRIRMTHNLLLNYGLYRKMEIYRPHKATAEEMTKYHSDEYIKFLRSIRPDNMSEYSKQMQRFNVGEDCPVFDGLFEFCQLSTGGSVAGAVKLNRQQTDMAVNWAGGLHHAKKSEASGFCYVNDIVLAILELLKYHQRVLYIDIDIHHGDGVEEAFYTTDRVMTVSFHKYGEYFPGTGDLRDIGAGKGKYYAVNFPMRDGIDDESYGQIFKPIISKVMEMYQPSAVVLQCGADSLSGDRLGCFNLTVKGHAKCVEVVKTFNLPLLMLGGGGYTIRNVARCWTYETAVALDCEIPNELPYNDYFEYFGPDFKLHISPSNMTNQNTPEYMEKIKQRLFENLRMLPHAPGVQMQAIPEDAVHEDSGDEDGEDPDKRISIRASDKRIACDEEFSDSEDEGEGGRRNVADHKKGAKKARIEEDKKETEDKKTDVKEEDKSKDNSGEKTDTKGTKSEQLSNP
The nature of data set [5]: Apparent volume of distribution during terminal phase in female Balb/c mouse at 5 mg/kg, ip measured after 24 hrs by LC-MS/MS analysis. It is filed as ADME, organism-based. Conditions: in vivo, read-out: Vz/F.
The subject of the next data set is Plasmodium yoelii. Put plainly: Antimalarial activity against erythrocytic stage of Plasmodium yoelli infected in female mouse model assessed as reduction in parasitemia at 30 mg/kg, ip pre-infected with parasite followed by twice daily compound administration from day 3 to 6 by microscopic analysis. It is filed as functional, organism-based. As to conditions: time 4.0 day.

The nature of data set [6]: Apparent clearance during terminal phase in female Balb/c mouse at 5 mg/kg, ip measured after 24 hrs by LC-MS/MS analysis. It is filed as ADME, organism-based. Conditions: in vivo, read-out: CLz/F (converted).
Data set [7] in a line: Tmax in female Balb/c mouse at 5 mg/kg, ip measured after 24 hrs by LC-MS/MS analysis. The format is ADME, organism-based. Conditions: in vivo.
Data set [8] in a line: AUC (0 to infinity) in female Balb/c mouse at 5 mg/kg, ip measured after 24 hrs by LC-MS/MS analysis. Conditions: in vivo. The format is ADME, organism-based.
The test system of data set [9] is Plasmodium falciparum. Put plainly: Inhibition of asynchronous ring stage Plasmodium falciparum 3D7 HDAC assessed as increase in histone H3 acetylation level at 20 times of IC50 concentration incubated for 2 hrs by Western blot analysis.
The next data set concerns the target T2, Histone deacetylase 8 (Homo sapiens, UniProt Q9BY41).
T2 sequence (Q9BY41 whole entry): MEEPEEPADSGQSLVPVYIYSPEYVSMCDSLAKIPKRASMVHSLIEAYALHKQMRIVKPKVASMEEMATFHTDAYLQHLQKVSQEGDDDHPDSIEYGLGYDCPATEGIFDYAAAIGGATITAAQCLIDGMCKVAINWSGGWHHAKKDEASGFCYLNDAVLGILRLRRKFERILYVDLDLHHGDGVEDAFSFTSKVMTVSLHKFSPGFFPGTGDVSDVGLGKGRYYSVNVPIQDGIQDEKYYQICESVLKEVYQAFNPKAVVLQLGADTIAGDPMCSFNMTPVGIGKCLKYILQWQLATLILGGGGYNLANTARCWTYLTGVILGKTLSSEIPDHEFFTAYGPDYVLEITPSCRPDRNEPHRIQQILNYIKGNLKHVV
Put plainly: Inhibition of recombinant human HDAC8 using Ac-peptide as substrate preincubated for 15 mins followed by substrate addition for 240 mins and measured after 120 mins of trypsin addition.

The target in the next data set is Histone deacetylase 1 (Homo sapiens, UniProt Q13547). Put plainly: Inhibition of recombinant human HDAC1 using Ac-peptide as substrate preincubated for 15 mins followed by substrate addition and measured after 60 mins.
Sequence of Histone deacetylase 1 (Q13547 whole entry): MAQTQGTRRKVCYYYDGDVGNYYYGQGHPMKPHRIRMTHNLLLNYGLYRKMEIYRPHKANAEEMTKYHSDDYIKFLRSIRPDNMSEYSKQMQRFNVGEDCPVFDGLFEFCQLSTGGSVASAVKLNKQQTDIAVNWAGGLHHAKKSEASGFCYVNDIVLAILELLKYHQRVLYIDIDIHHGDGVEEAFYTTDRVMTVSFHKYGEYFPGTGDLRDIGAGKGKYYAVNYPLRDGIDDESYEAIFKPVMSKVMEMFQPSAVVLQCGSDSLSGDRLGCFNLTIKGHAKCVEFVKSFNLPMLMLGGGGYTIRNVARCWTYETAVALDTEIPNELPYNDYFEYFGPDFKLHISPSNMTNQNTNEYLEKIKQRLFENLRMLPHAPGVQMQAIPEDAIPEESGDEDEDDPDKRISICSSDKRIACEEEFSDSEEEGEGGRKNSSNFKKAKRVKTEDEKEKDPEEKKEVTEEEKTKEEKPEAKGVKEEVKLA
A short description of data set [10]: Selectivity index, ratio of IC50 for HEK293T cells to IC50 for erythrocytic stage of Plasmodium falciparum 3D7. It is filed as toxicity, cell-based. As to conditions: human, read-out: Ratio IC50.
The nature of data set [11]: AUC (0 to t) in female Balb/c mouse at 5 mg/kg, ip measured after 24 hrs by LC-MS/MS analysis. It is filed as ADME, organism-based. As to conditions: in vivo.
Data set [12] has as its system Plasmodium falciparum. Nature of the data set: Antimalarial activity against sulfadoxine-pyrimethamine and mefloquine resistant Plasmodium falciparum clinical isolate CP286 assessed as inhibition of growth incubated for 72 hrs by SYBR green I based assay. It is filed as functional, organism-based.
Data set [13] is described as follows: Cytotoxicity against HEK293T cells assessed as inhibition of cell growth incubated for 72 hrs by CCK8 assay. Conditions: human. It is filed as toxicity, cell-based, HEK-293T.
Data set [14] can be described thus: Metabolic stability in mouse liver microsomes assessed as half-life measured upto 45 mins in presence of NADPH by LC-MS/MS analysis. It is filed as ADME, Microsome.

The source made the active and inactive calls. The rule behind the calls is not given here.

As for `Cc1ccc2c(CN[C@H]3CC[C@@H](Nc4ncc(C(=O)NO)cn4)CC3)cn(C)c2c1.Cl`, the IC50 in data set [1] worked out at 60 nM; in the data set with Plasmodium falciparum [2] it was 11.3 nM; with Plasmodium falciparum [3] it was 19.4 nM; on Histone deacetylase 2 it was 11 nM; on Histone deacetylase 8, 43 nM; on Histone deacetylase 1 it was 4.9 nM. In addition, the IC50 in the data set with Plasmodium falciparum [12] worked out at 28.4 nM. Besides, the Activity entry is given as “Toxic” in data set [4] and “Active; Only Slight Recurrence Of Parasitemia Was Observed Upon Cessation Of Treatment” in the data set with Plasmodium yoelii. In addition, the Vd/F in data set [5] stood at 16.1 L/kg. The CL/F in [6] is 97.7 mL/min/kg. For the same compound, the Tmax in data set [7] stood at 15 min. In [8], the AUC(0-inf) turned out to be 853 ng·h/mL. Also, the inhibition entry with Plasmodium falciparum [9] was “Active”. Besides, the selectivity ratio in data set [10] worked out at 687. The AUC(0-t) at 24 h in [11] was 833 ng·h/mL. In addition, in [13], the IC50 at 72 h is 7750 nM. For the same compound, the half-life in data set [14] was found to be 39 min.
